Here are results for 46 compounds from US20230348418A1, “ISOINDOLINONE COMPOUNDS” (Monte Rosa Therapeutics, Inc., priority 2021, published 2023).

This experiment has as its target T1, Full length wild-type cereblon CRBN (Homo sapiens, UniProt Q96SW2).
T1 construct: Full length wild-type cereblon CRBN (80.0 nM, 10 μL) was incubated in assay buffer
Nature of the experiment: Fluorescence polarization (FP) assay, cereblon binding. To be noted: for IC50: rFP IC50 [nM]. The text has this: Compound activity was monitored in a fluorescence polarization (FP) homogeneous assay using 1-[5-({2-[2-(2-{[2-(2,6-dioxopiperidin-3-yl)-1,3-dioxo-2,3-dihydro-1H-isoindol-4-yl]oxy}acetamido)ethoxy]ethyl}carbamoyl)pentyl]-3,3-dimethyl-2-[(1E,3E)-5-[(2E)-1,3,3-trimethyl-5-sulfo-2,3-dihydro-1H-indol-2-ylidene]penta-1,3-dien-1-yl]-3H-indol-1-ium-5-sulfonate as a fluorescent probe. Unless otherwise stated, all reagents were purchased from Sigma Aldrich. […] Full length wild-type cereblon CRBN (80.0 nM, 10 μL) was incubated in assay buffer containing 20 mM HEPES (pH 8.0), […], 0.5 mM TCEP and 0.05% Tween 20 in the presence or absence of compound (300 nL). Inhibitors were stored as 10 mM DMSO stocks in an inert environment (low humidity, dark, low oxygen, room temperature) using the Storage Pod System. […] Following incubation at room temperature for 30 min, the assay was initiated by dispensing the probe to a final concentration of […] (2.5 nL of a 20 μM stock) using the Echo E5XX. […] The FP signal was subsequently normalized to the no-compound control (i.e., DMSO). Analysis and IC50 values were derived using Dotmatics (Dotmatics UK) software.

[1] abbreviates: bounds stated in the text lists b2059-b2061, read-out: IC50 value.
Setting [2] is: cereblon binding, class code, read-out: rFP IC50.
The mark [3] stands for this setting: IC50 value, bounds stated in the text lists b2059-b2061.

pIC50: −log10 of the molar value. Read-outs that look alike come from different tables or passages of the source. Bounds are passed on as bounds.

T1 sequence (Q96SW2 whole entry): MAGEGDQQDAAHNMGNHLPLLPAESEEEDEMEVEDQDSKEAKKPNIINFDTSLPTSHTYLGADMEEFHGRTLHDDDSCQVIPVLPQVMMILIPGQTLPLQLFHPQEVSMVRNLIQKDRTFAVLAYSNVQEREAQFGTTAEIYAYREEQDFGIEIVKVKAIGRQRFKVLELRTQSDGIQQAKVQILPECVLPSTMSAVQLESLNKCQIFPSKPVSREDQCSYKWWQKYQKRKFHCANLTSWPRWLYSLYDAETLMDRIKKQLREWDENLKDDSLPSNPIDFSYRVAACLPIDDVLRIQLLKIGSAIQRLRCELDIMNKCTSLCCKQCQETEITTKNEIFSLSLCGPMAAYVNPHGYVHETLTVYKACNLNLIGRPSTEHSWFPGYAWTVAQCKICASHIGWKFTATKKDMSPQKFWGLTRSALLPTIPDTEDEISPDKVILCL

As usually defined, the pIC50 is the IC50 on a negative log10 scale, so that one unit is a factor of ten. For the compound `Cc1c(F)cc(NC(=O)OCc2ccc3c(c2)C(=O)N(C2CCC(=O)NC2=O)C3)cc1CN1CCOCC1` (centres unmarked) [Compound 41], the pIC50 under setting [1] was over 5.77 and the pIC50 under setting [2] was 5.96 to 6.30.

Consider `Cc1ncc(NC(=O)OCc2ccc3c(c2)C(=O)N(C2CCC(=O)NC2=O)C3)cc1OC(F)(F)F` (centres unmarked) [Compound 91], for which the pIC50 was over 5.77 under setting [1] and 5.96 to 6.30 under setting [2].

Turning to `CN1CCC(COc2cc(Cl)cc(NC(=O)OCc3ccc4c(c3)C(=O)N(C3CCC(=O)NC3=O)C4)c2)C1` (centres unmarked) [Compound 40], the pIC50 under setting [1] is over 5.96.

For `CC1CCCN1c1ccc(NC(=O)OCc2ccc3c(c2)C(=O)N(C2CCC(=O)NC2=O)C3)cn1` (centres unmarked) [Compound 74], the negative-log IC50 (pIC50) under setting [1] was over 5.96.

Regarding `Cc1cc(F)cc(NC(=O)OCc2ccc3c(c2)C(=O)N(C2CCC(=O)NC2=O)C3)c1` (centres unmarked) [Compound 146, (2-(2,6-dioxopiperidin-3-yl)-3-oxoisoindolin-5-yl)methyl (3-fluoro-5-methylphenyl) carbamate], the pIC50 by setting is: under setting [1], over 5.77; under setting [2], 5.77 to 5.96.

For `Cc1ccc(NC(=O)OCc2ccc3c(c2)C(=O)N(C2CCC(=O)NC2=O)C3)cc1F` (centres unmarked) [Compound 133, (2-(2,6-dioxopiperidin-3-yl)-3-oxoisoindolin-5-yl)methyl (3-fluoro-4-methylphenyl)carbamate], the pIC50 by setting is: under setting [1], over 5.96; under setting [2], 5.96 to 6.30.

In the case of `Cc1cc(NC(=O)OCc2ccc3c(c2)C(=O)N(C2CCC(=O)NC2=O)C3)cnc1-c1ccccc1` (centres unmarked) [Compound 88], the pIC50 runs as follows: under setting [1], over 5.77; under setting [2], 5.96 to 6.30.

For `O=C1CCC(N2Cc3ccc(COC(=O)Nc4ccc5c(c4)OCCC5)cc3C2=O)C(=O)N1` (centres unmarked) [Compound 92], the pIC50 is, setting by setting: under setting [1], over 5.77; under setting [2], 5.96 to 6.30.

As to `CC(C)(C)c1ccc(NC(=O)OCc2ccc3c(c2)C(=O)N(C2CCC(=O)NC2=O)C3)c(F)c1` (centres unmarked) [Compound 142, (2-(2,6-dioxopiperidin-3-yl)-3-oxoisoindolin-5-yl)methyl (4-(tert-butyl)-2-fluorophenyl)carbamate], the pIC50 is, setting by setting: under setting [1], over 5.96; under setting [2], 5.96 to 6.30.

As for `CCc1nscc1NC(=O)OCc1ccc2c(c1)C(=O)N(C1CCC(=O)NC1=O)C2` (centres unmarked) [Compound 147], the pIC50 was over 5.96 under setting [1] and 5.96 to 6.30 under setting [2].

Under setting [3], `O=C1CCC(N2Cc3ccc(COC(=O)Nc4ccnc(-c5ccccc5)c4)cc3C2=O)C(=O)N1` (centres unmarked) [Compound 149] had a negative-log IC50 (pIC50) of over 5.96.

On to `O=C1CCC(N2Cc3ccc(COC(=O)Nc4ccc5c(c4)OC(F)(F)O5)cc3C2=O)C(=O)N1` (centres unmarked) [Compound 79], for which the negative-log IC50 (pIC50) is over 5.77 under setting [1] and 5.77 to 5.96 under setting [2].

Turning to `Cc1ccc(NC(=O)OCc2ccc3c(c2)C(=O)N(C2CCC(=O)NC2=O)C3)cc1OC(F)F` (centres unmarked) [Compound 24], the negative logarithm of the IC50 (pIC50) reads like this: under setting [1], over 5.77; under setting [2], 5.96 to 6.30.

Turning to `CCc1cc(NC(=O)OCc2ccc3c(c2)C(=O)N(C2CCC(=O)NC2=O)C3)cnc1C` (centres unmarked) [Compound 55], the pIC50 is, setting by setting: under setting [1], over 5.77; under setting [2], 5.96 to 6.30.

`O=C1CCC(N2Cc3ccc(COC(=O)Nc4ccc(N5CCCC(F)(F)C5)nc4)cc3C2=O)C(=O)N1` (centres unmarked) [Compound 73]: the pIC50 under setting [1] was over 5.96.

Turning to `Cc1cc(F)c(NC(=O)OCc2ccc3c(c2)C(=O)N(C2CCC(=O)NC2=O)C3)cc1Cl` (centres unmarked) [Compound 141, (2-(2,6-dioxopiperidin-3-yl)-3-oxoisoindolin-5-yl)methyl (5-chloro-2-fluoro-4-methylphenyl)carbamate], the negative logarithm of the IC50 (pIC50) by setting is: under setting [1], over 5.96; under setting [2], 5.96 to 6.30.

Regarding `O=C1CCC(N2Cc3ccc(COC(=O)Nc4cnc5c(c4)COCC5)cc3C2=O)C(=O)N1` (centres unmarked) [Compound 54], under setting [1], the negative logarithm of the IC50 (pIC50) was over 5.96.

For the compound `O=C1CCC(N2Cc3ccc(COC(=O)NC4CCCCC4)cc3C2=O)C(=O)N1` (centres unmarked) [Compound 28], the pIC50 by setting is: under setting [1], over 5.77; under setting [2], 5.77 to 5.96.

For orientation: IC50 means the concentration at which inhibition is half-maximal. The low end stands for greater potency, the high end for weaker potency. `O=C1CCC(N2Cc3ccc(COC(=O)Nc4cc(OC(F)(F)F)ccc4F)cc3C2=O)C(=O)N1` (centres unmarked) [Compound 145, (2-(2,6-dioxopiperidin-3-yl)-3-oxoisoindolin-5-yl)methyl(2-fluoro-5-(trifluoromethoxy)phenyl)carbamate] returned a 50% inhibitory concentration (IC50) of 500 to 1100 nM. For the same compound, for the setting “IC50 value”, the pIC50 was over 5.96.

Regarding `O=C1CCC(N2Cc3ccc(COC(=O)Nc4cnc(N5CCCCC5)nc4)cc3C2=O)C(=O)N1` (centres unmarked) [Compound 64], the pIC50 under setting [1] was over 5.77 and the negative-log IC50 (pIC50) under setting [2] is 5.96 to 6.30.

Regarding `O=C1CCC(N2Cc3ccc(COC(=O)NCc4ccccc4)cc3C2=O)C(=O)N1` (centres unmarked) [Compound 98], the pIC50 is over 5.77 under setting [1] and 5.96 to 6.30 under setting [2].

Regarding `COc1ccccc1-c1ccc(NC(=O)OCc2ccc3c(c2)C(=O)N(C2CCC(=O)NC2=O)C3)cn1` (centres unmarked) [Compound 87], the negative logarithm of the IC50 (pIC50) was over 5.77 under setting [1] and 5.96 to 6.30 under setting [2].

Take `Cc1cc(C)cc(NC(=O)OCc2ccc3c(c2)C(=O)N(C2CCC(=O)NC2=O)C3)c1` (centres unmarked) [Compound 8]: the negative logarithm of the IC50 (pIC50) runs as follows: under setting [1], over 5.77; under setting [2], 5.96 to 6.30.

Take `CC1(c2ccc(NC(=O)OCc3ccc4c(c3)C(=O)N(C3CCC(=O)NC3=O)C4)cc2)COC1` (centres unmarked) [Compound 62]: the pIC50 under setting [1] is over 5.77 and the pIC50 under setting [2] was 5.96 to 6.30.

`O=C1CCC(N2Cc3ccc(COC(=O)Nc4cnc5c(c4)CCC5)cc3C2=O)C(=O)N1` (centres unmarked) [Compound 53]: the pIC50 is over 5.77 under setting [1] and 5.96 to 6.30 under setting [2].

`COc1ccccc1CNC(=O)OCc1ccc2c(c1)C(=O)N(C1CCC(=O)NC1=O)C2` (centres unmarked) [Compound 97]: the pIC50 reads like this: under setting [1], over 5.77; under setting [2], 5.96 to 6.30.

`O=C1CCC(N2Cc3ccc(COC(=O)Nc4ccc5c(c4)OCC5)cc3C2=O)C(=O)N1` (centres unmarked) [Compound 18]: the pIC50 is over 5.77 under setting [1] and 5.96 to 6.30 under setting [2].

Take `O=C1CCC(N2Cc3ccc(COC(=O)N4CCN(c5ccccc5)CC4)cc3C2=O)C(=O)N1` (centres unmarked) [Compound 36]: under setting [1], the negative logarithm of the IC50 (pIC50) is over 5.96.

As to `CC(C)(C)c1ccc(NC(=O)OCc2ccc3c(c2)C(=O)N(C2CCC(=O)NC2=O)C3)nc1` (centres unmarked) [Compound 131, (2-(2,6-dioxopiperidin-3-yl)-3-oxoisoindolin-5-yl)methyl (5-(tert-butyl)pyridin-2-yl)carbamate], the pIC50 reads like this: under setting [1], over 5.96; under setting [2], 5.96 to 6.30.

In the case of `O=C1CCC(N2Cc3ccc(COC(=O)Nc4ccc(N5CC6CCC(C5)O6)nc4)cc3C2=O)C(=O)N1` (centres unmarked) [Compound 65], the pIC50 under setting [1] was over 5.96.

`Cc1cc(Cl)c(NC(=O)OCc2ccc3c(c2)C(=O)N(C2CCC(=O)NC2=O)C3)cc1Cl` (centres unmarked) [Compound 119] had a pIC50 under setting [3] of over 5.96. Where the note is “cereblon binding, class code”, this compound had a concentration for half-maximal inhibition (IC50) of 500 to 1100 nM.

Take `O=C1CCC(N2Cc3ccc(COC(=O)Nc4ccc5c(c4)CC(F)(F)O5)cc3C2=O)C(=O)N1` (centres unmarked) [Compound 113]: the negative logarithm of the IC50 (pIC50) under setting [3] is over 5.96.

For `COc1cc(NC(=O)OCc2ccc3c(c2)C(=O)N(C2CCC(=O)NC2=O)C3)cnc1-c1ccccc1` (centres unmarked) [Compound 90], the pIC50 reads like this: under setting [1], over 5.77; under setting [2], 5.77 to 5.96.

In the case of `CC1(c2ccc(NC(=O)OCc3ccc4c(c3)C(=O)N(C3CCC(=O)NC3=O)C4)cc2)CC1` (centres unmarked) [Compound 58], the pIC50 was over 5.77 under setting [1] and 5.96 to 6.30 under setting [2].

As to `O=C1CCC(N2Cc3ccc(COC(=O)Nc4cc(OCCN5CCOCC5)cc(OC(F)F)c4)cc3C2=O)C(=O)N1` (centres unmarked) [Compound 96], the negative-log IC50 (pIC50) runs as follows: under setting [1], over 5.77; under setting [2], 5.77 to 5.96.

With `O=C1CCC(N2Cc3ccc(COC(=O)Nc4ccc(F)c(Cl)c4)cc3C2=O)C(=O)N1` (centres unmarked) [Compound 9], the negative-log IC50 (pIC50) under setting [1] is over 5.77 and the pIC50 under setting [2] is 5.77 to 5.96.

For `COc1ccc(Cl)cc1NC(=O)OCc1ccc2c(c1)C(=O)N(C1CCC(=O)NC1=O)C2` (centres unmarked) [Compound 14], the negative logarithm of the IC50 (pIC50) was over 5.77 under setting [1] and 5.77 to 5.96 under setting [2].

`CCOc1cc(NC(=O)OCc2ccc3c(c2)C(=O)N(C2CCC(=O)NC2=O)C3)ccc1C` (centres unmarked) [Compound 33]: the pIC50 under setting [1] was over 6.30 and the pIC50 under setting [2] was 5.96 to 6.30.

For `O=C1CCC(N2Cc3ccc(COC(=O)Nc4ccc(N5CCC(F)(F)CC5)nc4)cc3C2=O)C(=O)N1` (centres unmarked) [Compound 78], the negative logarithm of the IC50 (pIC50) under setting [1] was over 5.96.

Regarding `O=C1CCC(N2Cc3ccc(COC(=O)Nc4cc(CN5CCOCC5)cc(OC(F)F)c4)cc3C2=O)C(=O)N1` (centres unmarked) [Compound 95], the pIC50 was over 5.77 under setting [1] and 5.77 to 5.96 under setting [2].

Consider `CN1CCN(c2ccc(NC(=O)OCc3ccc4c(c3)C(=O)N(C3CCC(=O)NC3=O)C4)cn2)CC1` (centres unmarked) [Compound 82], for which, under setting [1], the pIC50 is over 5.96.

Turning to `O=C1CCC(N2Cc3ccc(COC(=O)N4CCCCC4)cc3C2=O)C(=O)N1` (centres unmarked) [Compound 23], the negative-log IC50 (pIC50) under setting [1] was over 5.96.

As to `Cc1c(Cl)cc(NC(=O)OCc2ccc3c(c2)C(=O)N(C2CCC(=O)NC2=O)C3)cc1OCC1CCNC1` (centres unmarked) [Compound 52], the negative-log IC50 (pIC50) reads like this: under setting [1], over 5.77; under setting [2], 5.96 to 6.30.

Turning to `O=C1CCC(N2Cc3ccc(COC(=O)Nc4cc(CN5CC6CC5CO6)cc(OC(F)F)c4)cc3C2=O)C(=O)N1` (centres unmarked) [Compound 100], the pIC50 is over 5.77 under setting [1] and 5.96 to 6.30 under setting [2].

For `O=C1CCC(N2Cc3ccc(COC(=O)Nc4cc(OC(F)(F)F)ccn4)cc3C2=O)C(=O)N1` (centres unmarked) [Compound 59], under setting [1], the pIC50 was over 5.96.

Under setting [3], `Cc1cc(NC(=O)OCc2ccc3c(c2)C(=O)N(C2CCC(=O)NC2=O)C3)cc(C(C)(C)C)n1` (centres unmarked) [Compound 118] showed a pIC50 of over 5.96. This compound gave an IC50 (cereblon binding, class code) of 500 to 1100 nM.
